Read-outs that look alike come from different tables or passages of the source.

In experiment [1] the test system is pH3(Ser 28) in U2OS cells. Nature of the experiment: Substrate phosphorylation immunofluorescence assay, pH3(Ser 28), U2OS. It counts as cell-based, human.
Experimental: After 8 h cells were fixed with 4% PFA for 20 min at room temperature. The fixed cells were washed with PBS. For immunostaining, cells were permeabilized and blocked with PBS containing 10% normal donkey serum (Jackson ImmunoResearch) and 0.1% Triton-X100 for 1 h at room temperature. Primary antibodies against phospho-LATS2 (Ser 83), phospho-histone H3(Ser 28), and anti-phospho-MPM2 (see Table S3 in Supplementary Material) were incubated for 1 h at room temperature. […] Cells were then washed twice with PBS containing 0.1% Triton-X100. […] Fifty fields per well were imaged with quadruplicate wells for each condition. Image analysis was done using the CV7000 image analysis software (Yokogawa Electric Corporation). Between 100 and 1,000 mitotic cells per condition were segmented applying object identification parameters to select for bright MPM2 labeling. Using a nuclear identifier protocol, minimum intensity thresholds were set for pLATS2(Ser 83) and the pH3(Ser 28) signals, and the resulting identified objects were eroded, dilated, and filtered for size by user-defined thresholds. […] The same thresholds were applied for all of the inhibitor-treated samples, which were processed, imaged, and analyzed in parallel with control DMSO-treated cells. Data were fit using a four-parameter, variable slope fit in Prism (GraphPad).
Experiment [2] relates to pLATS2(Ser 83) in RPE1 cells. Nature of the experiment: Substrate phosphorylation immunofluorescence assay, pLATS2(Ser 83), RPE1. In kind it is cell-based, human. Particulars: for IC50: Homo sapiens, read-out: pLATS2 (Ser83) IC50. As for the experimental part:
We employed the protocol described in Figure 3D to analyze substrate phosphorylation in HeLa cells following treatment with all 10 inhibitors in dose–response. Asynchronous cells were incubated with vehicle (DMSO) or different inhibitor doses for 8 h and then fixed and labeled with a mixture of three antibodies directed against pLATS2(Ser 83), pH3(Ser 28), and MPM2 [which detects mitotic phosphoepitopes; ([86])]. While both the anti-pLATS2(Ser 83) and MPM2 antibodies are mouse monoclonals, they are of different IgG subclasses [IgG2b for anti-pLATS2(Ser 83) and IgG1 for MPM2], and can thus be detected with subclass-specific secondary antibodies (Table S3 in Supplementary Material).
In control mitotic cells, pLATS2(Ser 83) is concentrated in foci around the spindle poles (Figure 3E; top row – green arrow) and pH3(Ser 28) is on the mitotic chromatin (Figure 3E; top row – red arrow). Selective kinase inhibition should result in loss of one signal but not the other, as illustrated by the example images for specific conditions in Figure 3E (middle and bottom rows). Cells were imaged in 4 channels to visualize pLATS2(Ser 83), pH3(Ser 28), MPM2, and DNA (labeled with Hoechst) and mitotic cells were segmented based on their bright MPM2 labeling (Figure 3E). Intensity and area thresholds were set to select the pLATS2(Ser 83) foci and the pH3(Ser 28)-labeled chromatin in their respective channels in DMSO-treated control cells and the same thresholds were applied for inhibitor-treated cells. The mean fluorescence intensity per pixel was measured to assess the activities of the kinases targeting these two substrate phosphorylation sites.
Twelve thousand HeLa cells, 10,000 U2OS cells, or 8,000 RPE1 cells were seeded into 96-well glass-bottom Sensoplates (Greiner) 16 h before inhibitor addition. Prior to seeding, the glass-bottom plates were coated with poly-L-lysine (Sigma). […] After 8 h cells were fixed with 4% PFA for 20 min at room temperature. The fixed cells were washed with PBS. For immunostaining, cells were permeabilized and blocked with PBS containing 10% normal donkey serum (Jackson ImmunoResearch) and 0.1% Triton-X100 for 1 h at room temperature. Primary antibodies against phospho-LATS2 (Ser 83), phospho-histone H3(Ser 28), and anti-phospho-MPM2 (see Table S3 in Supplementary Material) were incubated for 1 h at room temperature. […] Cells were then washed twice with PBS containing 0.1% Triton-X100. Image acquisition in four channels was performed using a CV7000 spinning disk confocal system (Yokogawa Electric Corporation) with a 40 × 0.95 NA U-PlanApo objective and 2560 × 2160 pixel sCMOS camera. […] Fifty fields per well were imaged with quadruplicate wells for each condition. Image analysis was done using the CV7000 image analysis software (Yokogawa Electric Corporation). Between 100 and 1,000 mitotic cells per condition were segmented applying object identification parameters to select for bright MPM2 labeling. Using a nuclear identifier protocol, minimum intensity thresholds were set for pLATS2(Ser 83) and the pH3(Ser 28) signals, and the resulting identified objects were eroded, dilated, and filtered for size by user-defined thresholds. For only the MPM2-positive mitotic cells, the mean fluorescence intensity of the identified pLATS2(Ser 83) and pH3(Ser 28) objects was measured, and the average intensity per cell per well was calculated. The same thresholds were applied for all of the inhibitor-treated samples, which were processed, imaged, and analyzed in parallel with control DMSO-treated cells. Data were fit using a four-parameter, variable slope fit in Prism (GraphPad). Primary and secondary antibody dilutions can be found in Table S3 in Supplementary Material.

Experiment [3] addresses 363 human kinases (including Aurora A/B/C) (Homo sapiens, UniProt Q04912). As to the kind of experiment: biochemical. In kind it is biochemical. The settings on record: RON/MST1R; for remaining activity at 0.5 µM / remaining activity at 0.1 µM: read-out: % Enzyme Activity (relative to DMSO controls); for remaining activity at 0.1 µM: 100 nM.
Text: (§1) However, the Aurora A/B selectivity ratios derived from our in vitro and in vivo data can be compared to prioritize inhibitors.
The target of experiment [4] is T1, 363 human kinases (including Aurora A/B/C) (Homo sapiens, UniProt P43403).
T1 sequence (P43403 1-619): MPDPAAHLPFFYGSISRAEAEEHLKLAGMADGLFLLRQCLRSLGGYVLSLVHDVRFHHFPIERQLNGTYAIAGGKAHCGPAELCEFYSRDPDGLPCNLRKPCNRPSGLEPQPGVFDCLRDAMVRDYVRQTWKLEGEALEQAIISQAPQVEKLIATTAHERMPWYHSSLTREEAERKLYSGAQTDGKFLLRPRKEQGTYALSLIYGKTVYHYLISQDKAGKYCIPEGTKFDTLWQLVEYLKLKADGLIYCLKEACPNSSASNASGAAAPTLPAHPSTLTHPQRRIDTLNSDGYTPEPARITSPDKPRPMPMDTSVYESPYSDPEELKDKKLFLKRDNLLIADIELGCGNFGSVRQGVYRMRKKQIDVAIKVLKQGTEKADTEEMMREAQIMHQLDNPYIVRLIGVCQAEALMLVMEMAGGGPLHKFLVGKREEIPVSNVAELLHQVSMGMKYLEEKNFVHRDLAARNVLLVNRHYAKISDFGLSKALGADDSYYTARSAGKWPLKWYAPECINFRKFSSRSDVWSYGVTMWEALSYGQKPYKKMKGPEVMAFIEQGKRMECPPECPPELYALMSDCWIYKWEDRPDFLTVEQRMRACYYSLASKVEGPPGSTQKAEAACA
As to the kind of experiment: biochemical. It counts as biochemical. The settings on record: ZAP70; for remaining activity at 0.5 µM / remaining activity at 0.1 µM: read-out: % Enzyme Activity (relative to DMSO controls); for remaining activity at 0.1 µM: 100 nM.
Text: as §1

Experiment [5] deals with 363 human kinases (including Aurora A/B/C) (Homo sapiens, UniProt P48729). Nature of the experiment: biochemical. In kind it is biochemical. Particulars: CK1a1, [ATP] 20 µM; for remaining activity at 0.5 µM / remaining activity at 0.1 µM: read-out: % Enzyme Activity (relative to DMSO controls); for remaining activity at 0.1 µM: 100 nM.
Text: as §1
Experiment [6] has as its target 363 human kinases (including Aurora A/B/C) (Homo sapiens, UniProt O00506). Nature of the experiment: biochemical. It counts as biochemical. Particulars: STK25/YSK1; for remaining activity at 0.5 µM / remaining activity at 0.1 µM: read-out: % Enzyme Activity (relative to DMSO controls); for remaining activity at 0.1 µM: 100 nM.
Text: as §1
Experiment [7] concerns the target 363 human kinases (including Aurora A/B/C) (Homo sapiens, UniProt P29597). Nature of the experiment: biochemical. Particulars: TYK2; for remaining activity at 0.5 µM / remaining activity at 0.1 µM: read-out: % Enzyme Activity (relative to DMSO controls); for remaining activity at 0.1 µM: 100 nM. It counts as biochemical.
Text: as §1

Chain of 363 human kinases (including Aurora A/B/C) (Homo sapiens, UniProt P48729) (P48729 whole entry): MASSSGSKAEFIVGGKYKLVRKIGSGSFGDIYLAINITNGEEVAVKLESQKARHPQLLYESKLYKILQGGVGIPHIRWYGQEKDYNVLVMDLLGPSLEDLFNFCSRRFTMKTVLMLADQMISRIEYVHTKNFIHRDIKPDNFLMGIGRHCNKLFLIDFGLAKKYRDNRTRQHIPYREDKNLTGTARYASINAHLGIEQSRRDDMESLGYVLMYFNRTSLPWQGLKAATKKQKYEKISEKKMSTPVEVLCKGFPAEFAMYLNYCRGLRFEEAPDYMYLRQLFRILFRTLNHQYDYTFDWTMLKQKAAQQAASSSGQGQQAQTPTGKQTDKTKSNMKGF
Chain of 363 human kinases (including Aurora A/B/C) (Homo sapiens, UniProt P29597) (P29597 whole entry): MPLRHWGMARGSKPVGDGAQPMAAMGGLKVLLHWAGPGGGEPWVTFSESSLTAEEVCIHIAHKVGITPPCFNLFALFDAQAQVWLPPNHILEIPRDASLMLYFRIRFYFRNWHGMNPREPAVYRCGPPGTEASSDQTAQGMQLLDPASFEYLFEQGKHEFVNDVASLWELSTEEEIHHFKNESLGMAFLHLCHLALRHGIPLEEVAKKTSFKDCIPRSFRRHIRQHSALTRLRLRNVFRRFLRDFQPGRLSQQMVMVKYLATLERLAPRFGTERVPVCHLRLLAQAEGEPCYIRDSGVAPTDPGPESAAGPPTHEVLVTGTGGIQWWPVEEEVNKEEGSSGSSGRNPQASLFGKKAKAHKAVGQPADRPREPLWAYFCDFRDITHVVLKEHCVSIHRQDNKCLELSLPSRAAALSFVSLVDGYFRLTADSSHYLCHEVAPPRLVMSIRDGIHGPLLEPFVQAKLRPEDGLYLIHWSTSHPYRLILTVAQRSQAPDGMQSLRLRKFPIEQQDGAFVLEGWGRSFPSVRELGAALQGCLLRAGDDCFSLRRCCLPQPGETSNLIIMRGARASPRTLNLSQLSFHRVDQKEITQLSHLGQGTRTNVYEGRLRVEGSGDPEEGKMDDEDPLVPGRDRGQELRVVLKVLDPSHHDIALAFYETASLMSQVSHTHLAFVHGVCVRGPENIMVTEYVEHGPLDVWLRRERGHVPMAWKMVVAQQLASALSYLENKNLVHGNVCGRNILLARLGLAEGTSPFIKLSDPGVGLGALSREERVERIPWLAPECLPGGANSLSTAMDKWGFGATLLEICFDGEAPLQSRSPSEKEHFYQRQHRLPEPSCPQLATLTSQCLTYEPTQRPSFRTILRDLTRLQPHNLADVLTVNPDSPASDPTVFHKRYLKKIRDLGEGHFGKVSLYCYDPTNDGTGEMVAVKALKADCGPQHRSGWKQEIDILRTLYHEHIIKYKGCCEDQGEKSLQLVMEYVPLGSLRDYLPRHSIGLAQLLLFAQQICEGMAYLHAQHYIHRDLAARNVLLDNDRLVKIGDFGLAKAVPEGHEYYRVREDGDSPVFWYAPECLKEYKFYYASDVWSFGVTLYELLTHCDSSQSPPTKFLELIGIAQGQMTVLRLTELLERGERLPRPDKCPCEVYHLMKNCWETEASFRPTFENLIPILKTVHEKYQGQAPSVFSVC
Chain of 363 human kinases (including Aurora A/B/C) (Homo sapiens, UniProt O00506) (O00506 whole entry): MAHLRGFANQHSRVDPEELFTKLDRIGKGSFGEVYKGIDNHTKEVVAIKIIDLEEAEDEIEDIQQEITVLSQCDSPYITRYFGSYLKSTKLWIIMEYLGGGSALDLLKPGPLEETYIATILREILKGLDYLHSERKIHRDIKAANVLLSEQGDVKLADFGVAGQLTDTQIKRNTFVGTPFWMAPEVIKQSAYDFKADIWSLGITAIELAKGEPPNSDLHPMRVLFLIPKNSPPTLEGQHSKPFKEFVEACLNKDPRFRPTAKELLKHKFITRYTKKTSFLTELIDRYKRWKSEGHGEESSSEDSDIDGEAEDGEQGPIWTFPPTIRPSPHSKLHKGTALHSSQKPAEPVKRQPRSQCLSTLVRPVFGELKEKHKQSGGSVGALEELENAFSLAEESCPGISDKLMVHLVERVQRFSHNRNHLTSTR
Chain of 363 human kinases (including Aurora A/B/C) (Homo sapiens, UniProt Q04912) (Q04912 25-1400): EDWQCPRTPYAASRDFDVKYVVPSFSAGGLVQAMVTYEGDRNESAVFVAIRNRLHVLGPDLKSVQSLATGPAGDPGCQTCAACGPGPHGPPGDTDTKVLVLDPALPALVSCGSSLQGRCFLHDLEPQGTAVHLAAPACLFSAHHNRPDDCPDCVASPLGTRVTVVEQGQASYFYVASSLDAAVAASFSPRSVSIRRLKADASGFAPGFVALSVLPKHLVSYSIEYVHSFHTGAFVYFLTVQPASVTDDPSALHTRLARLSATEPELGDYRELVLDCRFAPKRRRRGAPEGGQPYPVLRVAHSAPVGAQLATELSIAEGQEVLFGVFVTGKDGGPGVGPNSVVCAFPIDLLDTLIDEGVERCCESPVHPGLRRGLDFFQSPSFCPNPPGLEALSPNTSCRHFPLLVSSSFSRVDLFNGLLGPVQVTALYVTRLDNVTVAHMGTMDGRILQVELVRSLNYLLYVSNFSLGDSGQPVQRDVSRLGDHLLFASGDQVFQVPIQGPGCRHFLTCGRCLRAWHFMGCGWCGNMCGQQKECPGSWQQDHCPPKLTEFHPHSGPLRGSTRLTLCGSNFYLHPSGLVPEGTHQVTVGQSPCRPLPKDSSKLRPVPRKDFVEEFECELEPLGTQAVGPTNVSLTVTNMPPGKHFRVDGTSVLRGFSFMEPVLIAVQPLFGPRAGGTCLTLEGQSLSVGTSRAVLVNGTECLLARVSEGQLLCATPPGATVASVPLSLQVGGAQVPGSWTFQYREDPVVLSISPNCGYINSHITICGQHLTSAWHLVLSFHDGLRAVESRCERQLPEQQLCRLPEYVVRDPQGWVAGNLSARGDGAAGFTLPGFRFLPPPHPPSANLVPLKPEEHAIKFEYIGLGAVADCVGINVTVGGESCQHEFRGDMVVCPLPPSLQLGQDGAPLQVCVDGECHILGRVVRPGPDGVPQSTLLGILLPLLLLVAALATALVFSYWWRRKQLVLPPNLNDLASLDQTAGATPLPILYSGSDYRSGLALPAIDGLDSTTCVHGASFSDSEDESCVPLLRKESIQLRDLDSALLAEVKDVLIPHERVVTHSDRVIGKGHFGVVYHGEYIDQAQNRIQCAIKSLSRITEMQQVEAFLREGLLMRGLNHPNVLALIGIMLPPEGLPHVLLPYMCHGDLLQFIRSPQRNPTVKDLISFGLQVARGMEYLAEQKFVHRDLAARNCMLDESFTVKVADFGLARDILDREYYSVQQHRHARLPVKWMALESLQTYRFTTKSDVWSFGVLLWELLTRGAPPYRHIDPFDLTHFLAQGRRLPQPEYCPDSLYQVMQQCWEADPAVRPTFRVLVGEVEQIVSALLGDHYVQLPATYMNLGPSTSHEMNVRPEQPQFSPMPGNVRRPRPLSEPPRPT

Take `O=C(c1cccc(Cl)c1F)N1CCN(Cc2cccc(Nc3nccs3)n2)CC1` [MK-8745]: the “pHistone H3 (Ser28) IC50” value in experiment [1] (8 h inhibitor treatment) is “NE@15 µM”. In addition, the IC50 in experiment [2] (RPE-1, RPE1, 8 h inhibitor treatment) worked out at 2300 nM. Further, the “% Enzyme Activity (relative to DMSO controls)” value in experiment [3] (500 nM) is listed as 94.45%; in experiment [4] (500 nM) it was 97.69%; in experiment [5] (500 nM), 99.17%; in experiment [6] (500 nM), 99.16%; in experiment [7] (500 nM) it was 67.55%. The remaining activity at 0.5 µM in experiment [3] (500 nM) was 96.3%; in experiment [4] (500 nM) it was 109%; in experiment [5] (500 nM) it was 99.8%; in experiment [6] (500 nM), 100%; in experiment [7] (500 nM) it was 67.8%.
`CCn1cc(-c2ccnc3[nH]c(-c4cccc(CN(C)C)c4)cc23)c(-c2ccc(NC(=O)N(C)C)cc2)n1` [GSK1070916]: in experiment [1] (Homo sapiens, 8 h, read-out: pHistone H3 (Ser28) IC50), the IC50 was found to be 8 nM. Moreover, the “pLATS2 (Ser83) IC50” value in experiment [2] (RPE1, 8 h inhibitor treatment) is “NE@200 nM”. Further, the remaining activity at 0.1 µM in experiment [3] was 93.8%; in experiment [4], 105%; in experiment [5], 103%; in experiment [6], 98.9%; in experiment [7], 87%.
In the case of `O=C(O)[C@]1(Cc2cccc(Nc3nccs3)n2)CC[C@@H](Oc2cccc(Cl)c2F)CC1` [MK-5108], the inhibition at 15 µM in experiment [1] (Homo sapiens, read-out: pHistone H3 (Ser28) inhibition at highest concentration tested) worked out at 20%. Also, the IC50 in experiment [2] (RPE-1, 8 h) came out at 1800 nM. The remaining activity at 0.1 µM in experiment [3] came out at 101%; in experiment [4], 103%; in experiment [5], 89%; in experiment [6] it was 104%; in experiment [7] it was 52.3%. In addition, the remaining activity at 0.5 µM in experiment [3] (500 nM) worked out at 94.1%; in experiment [4] (500 nM), 113%; in experiment [5] (500 nM), 101%; in experiment [6] (500 nM), 113%; in experiment [7] (500 nM), 17%.

The record behind these values is PMC4685510, “A Cell Biologist’s Field Guide to Aurora Kinase Inhibitors” (Frontiers in Oncology, 2015).
